Holding throughout (format): cell-based
One series deals with SSP-25 cells. Put plainly: xCELLigence cell death assay in SSP-25 cells (cellular assay for RAD51 inhibition). The following applies: concentration gradient added at 20 hour mark, only values with R^>0.85 shown.
The subject of a further series is fresh human RBCs. Conditions: red cells of human, 1 h, 250. In short, it runs like this: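 Washed RBCs from O+ donors (K2EDTA), diluted to 2% in PBS, incubated with compounds at various concentrations for 1 hr at 37 C. Supernatant absorbance read at 450 or 405 nm after centrifugation; % hemolysis relative to 1% Triton X-100.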
Series [1] concerns A549 cells. In words: A549 cell growth/death, xCELLigence and microscopy. The following applies: xCELLigence, concentration gradient. How it is done:
To assess the growth inhibitory properties of compounds disclosed herein, 10 μM of Compound 1 was tested against a PBS mock treatment for growth of A549 cells using microscopy at the indicated timepoints shown in the top right corner of each panel of FIG. 2. […] First, 5,000 A549 cells were plated, and adherence and growth was measured for 20 hours using live measurements of current impedance through the plate using the xCELLigence™ instrument. At the […] mark, a concentration gradient of Compound 1 or a PBS control was added to the A549 cells, which were cultured in 100 μL DMEM media with 10% FBS.

The test system of another series is primary fibroblasts. Put plainly: Selective killing, Cytation imaging of primary fibroblasts. Conditions: 10 μM, approx. 5 minute time points. How it is done: To assess the specificity of compounds disclosed herein in targeting cancers with overexpression of RAD51, Compound 1 was tested against primary fibroblasts and SSP25 cells (cholangiocarcinoma cell line) (FIG. 5). First, 5,000 cells were incubated in 96-well culture plates overnight. Cells were grown in DMEM or RPMI, respectively, with 10% FBS, and […] was added to a concentration of 10 μM and imaging commenced using a Cytation™ instrument using approximately 5 minute time points. DAPI was used to visualize the nuclei and mitotracker-red was used to observe mitochondria. […] Furthermore, cell morphology was affected within 5 minutes of imaging, and the macrobubble phenotype was stable for further periods of time.

The test system of a further series is SSP25 cells. In words: xCELLigence cell death assay with intracellular calcium chelators. The following applies: relative to compound alone. How it is done:
To investigate the hypothesis that peptide treatment of cells causes cell death via increases in intracellular free calcium levels, Compound 1 alone and in combination with two different intracellular calcium chelators (1,2-Bis(2-aminophenoxy)ethane-N,N,N′,N′-tetraacetic acid tetrakis(acetoxymethyl ester) aka “BAPTA-AM”, and ammoniated ruthenium oxychloride aka “ruthenium red”) was tested in an xCELLigence™ cell death assay as in Example 1. The intracellular calcium chelators alone were also evaluated on the cells.

Series [2] deals with A549 cells. Put plainly: Intracellular calcium imaging with Fluo-2-AM. Conditions: 30 μM compound, pre-incubation with 2.5 μM Fluo-2-AM. An excerpt: Timestamps for the duration of the experiment are indicated in each panel.
Background: A change in cytosolic calcium serves as a functional read-out for many receptors and channels.

For `CSCC[C@@H](NC(=O)[C@@H](CC(C)C)NC(C)=O)C(=O)N[C@H](CCCNC(=N)N)C(=O)N[C@H](CO)C(=O)N[C@H](CCC(N)=O)C(=O)N[C@H](CCCNC(=N)N)C(=O)N[C@H](CC(C)C)C(=O)N[C@H](CCCNC(=N)N)C(=O)N[C@H](CCC(N)=O)C(=O)NCC(=O)N[C@H](CC(C)C)C(=O)N[C@H](CCCNC(=N)N)C(=O)N[C@H](CCCCN)C(=O)N[C@H](CCCNC(=N)N)C(=O)N[C@H](CCCNC(=N)N)C(=O)N[C@H](CCCNC(=N)N)C(=O)N[C@H](CCCNC(=N)N)C(=O)N[C@H](CCCNC(=N)N)C(=O)N[C@H](CCCNC(=N)N)C(=O)N[C@H](CCCNC(=N)N)C(N)=O` [Compound 2, Ac-lmrsqrlrqGlrkrrrrrrr-NH2], the midpoint of inhibition in the series on SSP-25 cells, the IC50, lay at 4.22 mM. Moreover, the “% Hemolysis (250 uM)” value with fresh human RBCs is recorded as 1%. In addition, the “effect on growth / cell death of A549 cells” value with A549 cells [1] is given as “rapid cell death (decrease in cell index)”. In addition, the “cell morphology / cell death in primary fibroblasts” value with primary fibroblasts was “little cell death is generated in the primary fibroblast cells compared to the SSP25 cells”. Besides, the “cell death with added calcium chelator BAPTA-AM” value in the series with SSP25 cells (10 μM compound + 10 μM BAPTA-AM) is recorded as “able to counteract the cell-death inducing effects”. In addition, in the series with SSP25 cells (10 μM compound + 40 μM Ruthenium red), the “cell death with added calcium chelator ruthenium red” value is “able to counteract the cell-death inducing effects”. Also, the “intracellular calcium (Fluo-2 dye)” value in the series with A549 cells [2] is “shows accumulation in response to treatment”.

Usually IC50 stands for the midpoint of a concentration-inhibition curve.

For the origin of these results see US12590126B2, “Compounds for selective disruption of protein-protein interactions” (SyntheX, Inc., priority 2017, dated 2026).
